Data published in patent publication US20230086702A1, “SUBSTITUTED 2-AMINO-PYRAZOLYL-[1,2,4]TRIAZOLO[1,5A]PYRIDINE DERIVATIVES AND USE THEREOF” (The Johns Hopkins University, priority 2019, published 2023).

What was measured:
DLK = target: T1, DLK (Homo sapiens, UniProt Q12852); experiment: DLK biochemical assay (TR-FRET, MKK7 phosphorylation)
T1 construct: 10 nM DLK, catalytic domain, Carna Biosiences; purchased Carna Biosciences ('Carna Biosiences' [sic])
T1 sequence (Q12852 125-366 limits assumed): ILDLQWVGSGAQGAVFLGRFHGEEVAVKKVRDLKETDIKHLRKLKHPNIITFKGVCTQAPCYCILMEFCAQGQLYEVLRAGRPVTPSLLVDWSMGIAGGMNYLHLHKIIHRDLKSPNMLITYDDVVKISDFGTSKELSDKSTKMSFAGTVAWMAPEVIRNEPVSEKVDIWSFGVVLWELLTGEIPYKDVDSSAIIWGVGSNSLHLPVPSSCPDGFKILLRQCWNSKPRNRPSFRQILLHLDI
Experimental: (§1) DLK assay is a biochemical assay format designed to screen for inhibitors of DLK. Enzymatic activity of DLK is measured by monitoring phosphorylation of the physiological substrate MKK7 (MAP2K7, Dual specificity mitogen-activated protein kinase kinase 7). Phosphorylation is detected by a TR-FRET system whereby His-tagged MKK7 is labeled by a XL665-labeled anti-His antibody (FRET acceptor, emission 665 nm). DLK phosphorylates MKK7 at T275/S277, which is detected by an Eu-labeled anti-phospho-MKK7 (T275/S277) antibody (FRET donor, excitation 340 nm). Phosphorylation of MKK7 results in an increased TR-FRET signal (Ratio XL665-channel/Eu-channel) and inhibition of enzymatic activity of DLK decreases the TR-FRET signal.
Assay Protocol for 1536 MTP format: test compounds are predispensed (60 nl) in test plates; +3 μl DLK solution (10 nM DLK, catalytic domain, Carna Biosiences, 0.6 mM DTT in assay buffer); +2 μl substrate solution (15 nM MKK7, LDB; 60 μM ATP; 0.4 mM DTT in assay buffer); 90 min incubation at RT; +2 μl detection mix (5 nM XL665-labeled anti-His antibody, Cisbio; 0.1 nM Eu-labeled anti-phospho-MKK7 (T275/S277), Cisbio/Millipore in detection buffer); 16 h incubation at 37° C.; endpoint measurement BMG (HTRF).
(§2) Assay Protocol for 384 low volume MTP format: 1 μl of test compounds is pipetted into test plate; +5 μl DLK solution (10 nM DLK, catalytic domain, Carna Biosiences in assay buffer); +5 μl substrate solution (15 nM MKK7, LDB; 60 μM ATP, in assay buffer); 90 min incubation at RT; +9 μl detection mix (20 nM XL665-labeled anti-His antibody, Cisbio; 0.4 nM Eu-labeled anti-phospho-MKK7 (T275/S277), Cisbio/Millipore in detection buffer); 16 h incubation at 4° C.; endpoint measurement BMG (HTRF).
(§3) All indicated concentrations final concentrations.
(§4) Assay buffer (384 format): 50 mM Hepes pH 7.5, 10 mM MgCl2, 1 mM EGTA, 1 mM DTT, 0.01% Triton X-100, 0.01% BSA, 1:500 Smart Block.
(§5) Detection buffer: 25 mM Tris/HCl pH 7.5, 100 mM EDTA, 100 mM NaCl, 200 mM KF, 0.01% Tween 20, 1:500 Smart Block.

LZK = target: T2, LZK (Homo sapiens, UniProt O43283); experiment: LZK biochemical assay (TR-FRET, MKK7 phosphorylation)
T2 construct: 10 nM LZK, catalytic domain, Carna Biosiences in assay buffer; purchased Carna Biosciences ('Carna Biosiences' [sic])
T2 sequence (O43283 168-409 limits assumed): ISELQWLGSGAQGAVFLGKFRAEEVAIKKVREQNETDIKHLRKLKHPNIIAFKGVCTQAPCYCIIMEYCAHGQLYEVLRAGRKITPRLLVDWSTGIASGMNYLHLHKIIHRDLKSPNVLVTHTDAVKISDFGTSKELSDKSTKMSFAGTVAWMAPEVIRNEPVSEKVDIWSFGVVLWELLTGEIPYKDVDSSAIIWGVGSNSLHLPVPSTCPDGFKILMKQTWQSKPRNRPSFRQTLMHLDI
Experimental: as §1, with “LZK” for “DLK”, “LZK.” for “DLK.”, “T275/S277” for “T275/S277,”
as §2, with “compound” for “compounds”, “LZK” for “DLK”, “LZK,” for “DLK,”, “15” for “60”, “+5” for “+9”, “32°” for “4°”
as §3, §4, §5

Structure (SMILES)	IC50 (DLK) [nM]	IC50 (LZK) [nM]
CC(C)C(c1ccc(C(F)(F)F)nc1)n1cc(-c2cc(-c3cnc(OCC(F)(F)F)nc3)n3nc(N)nc3c2)cn1 (racemic) [II-85, 7-(1-{2-Methyl-1-[6-(trifluoromethyl)pyridin-3-yl]propyl}-1H-pyrazol-4-yl)-5-[2-(2,2,2-trifluoroethoxy)pyrimidin-5-yl][1,2,4]triazolo[1,5-a]pyridin-2-amine]	230	320
CC[C@@H](c1ccc(F)cc1)n1cc(-c2cc(-c3cnn(CC(F)(F)F)c3)n3nc(N)nc3c2)cn1 [II-128]	15	160
Nc1nc2cc(-c3cnn(C4CCN(C5COC5)CC4)c3)cc(-c3ccc(C4CC4)nc3)n2n1 [II-83, 5-(6-Cyclopropylpyridin-3-yl)-7-{1-[1-(oxetan-3-yl)piperidin-4-yl]-1H-pyrazol-4-yl}[1,2,4]triazolo[1,5-a]pyridin-2-amine]	210	110
Nc1nc2cc(-c3cnn(Cc4ccccc4)c3)cc(-c3cnn(C4CCOC4)c3)n2n1 (stereo not shown) [II-125]	17	160
Nc1nc2cc(-c3cnn(Cc4ccccc4)c3)cc(-c3cnccn3)n2n1 [II-86, 7-(1-Benzyl-1H-pyrazol-4-yl)-5-(pyrazin-2-yl)[1,2,4]triazolo[1,5-a]pyridin-2-amine]	54	900
CC(C)C(c1ccc(C(F)(F)F)nc1)n1cc(-c2cc(-c3ccc(C4CC(F)(F)C4)nc3)n3nc(N)nc3c2)cn1 (single isomer, unassigned) [II-75, 5-[6-(3,3-Difluorocyclobutyl)pyridin-3-yl]-7-(1-{2-methyl-1-[6-(trifluoromethyl)pyridin-3-yl]propyl}-1H-pyrazol-4-yl)[1,2,4]triazolo[1,5-a]pyridin-2-amine]	27	15
CCC(c1ccc(C(F)(F)F)cc1)n1cc(-c2cc(-c3cnn(C4CCCC4)c3)n3nc(N)nc3c2)cn1 (single isomer, unassigned) [II-134, 5-(1-Cyclopentyl-1H-pyrazol-4-yl)-7-(1-{1-[4-(trifluoromethyl)phenyl]propyl}-1H-pyrazol-4-yl)[1,2,4]triazolo[1,5-a]pyridin-2-amine]	32	44

Continued, values first:

IC50 (DLK) [nM]	IC50 (LZK) [nM]	Structure (SMILES)
7.6	14	Nc1nc2c(-c3cccc(S(=O)(=O)C(F)(F)F)c3)cc(-c3cnn(C(c4ccc(C(F)(F)F)nc4)C4CCOCC4)c3)cn2n1 (single isomer, unassigned) [II-21, 6-(1-{Tetrahydro-2H-pyran-4-yl[6-(trifluoromethyl)pyridin-3-yl]methyl}-1H-pyrazol-4-yl)-8-{3-[(trifluoromethyl)sulfonyl]phenyl}[1,2,4]triazolo[1,5-a]pyridin-2-amine]
210	150	CCC(c1ccc(C(F)(F)F)nc1)n1cc(-c2cc(-c3ccnc(OC(F)F)c3)c3nc(N)nn3c2)cn1 (single isomer, unassigned) [II-26, 8-[2-(Difluoromethoxy)pyridin-4-yl]-6-(1-{1-[6-(trifluoromethyl)pyridin-3-yl]propyl}-1H-pyrazol-4-yl)[1,2,4]triazolo[1,5-a]pyridin-2-amine]
130	82	CCC(c1ccc(C(F)(F)F)nc1)n1cc(-c2cc(-c3ccnc(OC(F)F)c3)c3nc(N)nn3c2)cn1 (racemic) [II-25, 8-[2-(Difluoromethoxy)pyridin-4-yl]-6-(1-{1-[6-(trifluoromethyl)pyridin-3-yl]propyl}-1H-pyrazol-4-yl)[1,2,4]triazolo[1,5-a]pyridin-2-amine]
71	140	Nc1nc2c(-c3cccc(S(=O)(=O)C(F)(F)F)c3)cc(-c3cnn(C(c4ccc(C(F)(F)F)nc4)C4CCOCC4)c3)cn2n1 (single isomer, unassigned) [II-20, 6-(1-{Tetrahydro-2H-pyran-4-yl[6-(trifluoromethyl)pyridin-3-yl]methyl}-1H-pyrazol-4-yl)-8-{3-[(trifluoromethyl)sulfonyl]phenyl}[1,2,4]triazolo[1,5-a]pyridin-2-amine]
3.7	7.9	CCC(c1ccc(C(F)(F)F)nc1)n1cc(-c2cc(-c3cccc(C(C)(C)O)c3)c3nc(N)nn3c2)cn1 (single isomer, unassigned) [II-8, 2-{3-[2-Amino-6-(1-{1-[6-(trifluoromethyl)pyridin-3-yl]propyl}-1H-pyrazol-4-yl)[1,2,4]triazolo[1,5-a]pyridin-8-yl]phenyl}propan-2-ol]
30	55	CCC(c1ccc(C(F)(F)F)nc1)n1cc(-c2cc(-c3ccnc(OC(F)F)c3)c3nc(N)nn3c2)cn1 (single isomer, unassigned) [II-27, 8-[2-(Difluoromethoxy)pyridin-4-yl]-6-(1-{1-[6-(trifluoromethyl)pyridin-3-yl]propyl}-1H-pyrazol-4-yl)[1,2,4]triazolo[1,5-a]pyridin-2-amine]
5.6	40	CC[C@@H](c1ccccc1)n1cc(-c2cc(-c3cnn(C(C)C(F)(F)F)c3)c3nc(N)nn3c2)cn1 (single isomer, unassigned) [II-95]
56	120	CCC(c1ccc(C(F)(F)F)nc1)n1cc(-c2cc(-c3ccc(C(F)(F)F)nc3)c3nc(N)nn3c2)cn1 (single isomer, unassigned) [II-38, 8-[6-(Trifluoromethyl)pyridin-3-yl]-6-(1-{1-[6-(trifluoromethyl)pyridin-3-yl]propyl}-1H-pyrazol-4-yl)[1,2,4]triazolo[1,5-a]pyridin-2-amine]
4.7	16	Nc1nc2c(-c3cnn(CC(F)(F)F)c3)cc(-c3cnn(C(c4ccc(C(F)(F)F)nc4)C4CCOCC4)c3)cn2n1 (single isomer, unassigned) [II-119, 6-(1-{Tetrahydro-2H-pyran-4-yl[6-(trifluoromethyl)pyridin-3-yl]methyl}-1H-pyrazol-4-yl)-8-[1-(2,2,2-trifluoroethyl)-1H-pyrazol-4-yl][1,2,4]triazolo[1,5-a]pyridin-2-amine]
1.6	5.6	Nc1nc2c(-c3ccn(CC(F)(F)F)c(=O)c3)cc(-c3cnn(C(c4ccc(C(F)(F)F)nc4)C4CCOCC4)c3)cn2n1 (single isomer, unassigned) [II-176, 4-[2-Amino-6-(1-{tetrahydro-2H-pyran-4-yl[6-(trifluoromethyl)pyridin-3-yl]methyl}-1H-pyrazol-4-yl)[1,2,4]triazolo[1,5-a]pyridin-8-yl]-1-(2,2,2-trifluoroethyl)pyridin-2(1H)-one]
